{"source": "the supplement of paper PMC3974653", "note": "Counter-ions that a name gives are not always drawn.", "data": [{"tested_on": "MTT (mouse pheochromocytoma)", "assay": "IC50 of cell viability (ATP content)", "details": "(24 or 48 h)", "outline": "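MTT mouse pheochromocytoma cells (5 µl of 200,000 cells/ml per well, white 1536-well plates, DMEM with 5% FBS and 1% horse serum) were cultured overnight at 37°C, 5% CO2. They then received 23 nl library compound in DMSO by pintool at 8 concentrations (final 0.5 nM to 46 µM) for 24 or 48 hrs. CellTiter-Glo ATP luminescence was read after 15 minutes. Signals were normalised to positive-control (100% inhibition) and DMSO (0%) wells, and IC50 came from a four-parameter logistic fit.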", "units": {"IC50 of cell viability": "µM"}, "values": [{"smiles": "Nc1ccc(O)c([N+](=O)[O-])c1", "note": "[4-Amino-2-nitrophenol]", "IC50 of cell viability": "> 46"}, {"smiles": "Nc1ccc(/N=N/c2ccccc2)cc1", "note": "[4-Aminoazobenzene]", "IC50 of cell viability": "> 46"}, {"smiles": "Nc1ccc(O)cc1", "note": "[4-Aminophenol]", "IC50 of cell viability": "> 46"}, {"smiles": "CC12CCC3C(CC\\C4=C(/O)C(=O)CCC34C)C1CCC2=O", "note": "(stereo unspecified) [4-Androsten-4-ol-3,17-dione]", "IC50 of cell viability": "> 46"}, {"smiles": "Nc1ccc(Cl)cc1N", "note": "[4-Chloro-o-phenylenediamine]", "IC50 of cell viability": "> 46"}, {"smiles": "CN(C)\\C1=C(/C)N(C)N(C2=CC=CC=C2)C1=O", "note": "[4-Dimethylaminoantipyrine]", "IC50 of cell viability": "> 46"}, {"smiles": "CCCCCCCCCC(CC)c1ccc([S+](=O)([O-])O)cc1", "note": "(stereo unspecified) [4-Dodecylbenzenesulfonic acid]", "IC50 of cell viability": "> 46"}, {"smiles": "NCCc1ccc(O)cc1", "note": "[4-HYDROXYPHENETHYLAMINE]", "IC50 of cell viability": "> 46"}, {"smiles": "CCCCCCc1ccc(O)cc1O", "note": "[4-Hexylresorcinol]", "IC50 of cell viability": "> 46"}, {"smiles": "O=P1(N(CCCl)CCCl)NC(OO)CCO1", "note": "(stereo unspecified) [4-Hydroperoxy Cyclophosphamide]", "IC50 of cell viability": "> 46"}, {"smiles": "Cc1cn[nH]c1.Cl", "note": "[4-Methylpyrazole hydrochloride]", "IC50 of cell viability": "> 46"}, {"smiles": "Nc1ccc([N+](=O)[O-])cc1", "note": "[4-Nitroaniline]", "IC50 of cell viability": "> 46"}, {"smiles": "CCCCCCCCCc1ccc(O)cc1", "note": "[4-Nonylphenol, branched]", "IC50 of cell viability": "> 46"}, {"smiles": "C(=C\\c1ccncc1)/c1ccccc1", "note": "[4-STYRYLPYRIDINE]", "IC50 of cell viability": "> 46"}, {"smiles": "CC(C)(C)c1ccc(O)cc1", "note": "[4-T-BUTYLPHENOL FORMALDEHYDE RESIN]", "IC50 of cell viability": "> 46"}, {"smiles": "Cc1ccc2c(Cl)cc(Cl)c(O)c2n1", "note": "[5,7-Dichloro-8-hydroxy-2-methylquinoline]", "IC50 of cell viability": "> 46"}, {"smiles": "Cc1ccc(N)cc1O", "note": "[5-Amino-o-cresol]", "IC50 of cell viability": "> 46"}, {"smiles": "N[C@@H](Cc1c[nH]c2ccc(O)cc12)C(=O)O", "note": "[5-HYDROXY-L-TRYPTOPHAN]", "IC50 of cell viability": "> 46"}, {"smiles": "O=C1[C@@H]2C[C@@H]3C[C@H]1C[C@@](O)(C3)C2", "note": "[5-Hydroxy-2-adamantanone]", "IC50 of cell viability": "> 46"}, {"smiles": "CN1c2c(O)nc(N)nc2NCC1CNc1ccc(C(=O)NC(CCC(=O)[O-])C(=O)[O-])cc1", "note": "(stereo unspecified) [5-METHYLTETRAHYDROFOLATE SODIUM SALT]", "IC50 of cell viability": "> 46"}, {"smiles": "COc1ccc2[nH]cc(CCN(C(C)C)C(C)C)c2c1", "note": "[5-Methoxy-N,N-diisopropyltryptamine]", "IC50 of cell viability": "> 46"}, {"smiles": "NC(=O)N/N=C/c1ccc([N+](=O)[O-])o1", "note": "[5-Nitro-2-furaldehyde semicarbazone]", "IC50 of cell viability": "> 46"}, {"smiles": "CC(=O)[C@H]1CC[C@H]2[C@@H]3CC[C@H]4C[C@H](O)CC[C@]4(C)[C@H]3CC[C@]12C", "note": "[5-alpha-PREGNAN-3-alpha-OL-20-ONE]", "IC50 of cell viability": "> 46"}, {"smiles": "C[C@]12CCC(=O)C[C@@H]1CC[C@@H]1[C@@H]2CC[C@]2(C)C=CC[C@@H]12", "note": "[5A-ANDROSTA-16-ENE-3-ONE]", "IC50 of cell viability": "> 46"}, {"smiles": "C[C@]12CCC(=O)C[C@@H]1CC[C@@H]1[C@@H]2CC[C@]2(C)[C@@H](O)CC[C@@H]12", "note": "[5alpha-Androstan-17beta-ol-3-one]", "IC50 of cell viability": "> 46"}, {"smiles": "CC(=O)[C@H]1CC[C@H]2[C@@H]3CC[C@H]4C[C@H](O)CC[C@]4(C)[C@H]3C(=O)C[C@]12C", "note": "[5alpha-Pregnan-3alpha-ol-11,20-dione]", "IC50 of cell viability": "> 46"}, {"smiles": "COc1cc2nc(O)nc(O)c2cc1OC", "note": "[6,7-DIMETHOXYQUINAZOLINE-2,4(1H,3H)-DIONE]", "IC50 of cell viability": "> 46"}, {"smiles": "CC1(C)S[C@@H]2[C@H](N)C(=O)N2[C@@H]1C(=O)O", "note": "[6-AMINOPENICILLANIC ACID]", "IC50 of cell viability": "> 46"}, {"smiles": "CCCc1cc(O)nc(S)n1", "note": "[6-Propyl-2-thiouracil]", "IC50 of cell viability": "> 46"}, {"smiles": "C[C@H]1C[C@H]2[C@@H]3CC[C@](O)(C(=O)COC(=O)CCC(O)=O)[C@@]3(C)C[C@H](O)[C@@H]2[C@@]\\4(C)/C=C\\C(=O)\\C=C14", "note": "[6a-Methylprednisolone 21-hemisuccinate sodium salt]", "IC50 of cell viability": "> 46"}, {"smiles": "Cn1c(=O)c2c(ncn2CCO)n(C)c1=O", "note": "[7-(beta-HYDROXYETHYL)THEOPHYLLINE]", "IC50 of cell viability": "> 46"}, {"smiles": "Oc1cccc2cccnc12", "note": "[8-Hydroxyquinoline]", "IC50 of cell viability": "> 46"}, {"smiles": "O=C(O)c1ccccc1O.Oc1cccc2cccnc12", "note": "[8-quinolinol and salicylic acid]", "IC50 of cell viability": "> 46"}, {"smiles": "O=[N+]([O-])c1c2ccccc2cc2ccccc12", "note": "[9-Nitroanthracene]", "IC50 of cell viability": "> 46"}, {"smiles": "CCCCCC(=O)O[C@@]1(CC[C@H]2[C@@H]3CCC/4=C/C(=O)CC[C@]4(C)[C@H]3CC[C@]12C)C(C)=O", "note": "[17a-Hydroxyprogesterone hexanoate]", "IC50 of cell viability": "> 46"}, {"smiles": "CC1(C(=O)O)CCC2(C)CCC3(C)C(=CC(=O)C4C5(C)CCC(O)C(C)(C)C5CCC43C)C2C1", "note": "(stereo not drawn) [18ALPHA-GLYCYRRHETINIC ACID]", "IC50 of cell viability": "> 46"}, {"smiles": "C[C@]12CCC3C(CCC4=CC(=O)CC[C@@H]43)C1CCC2O", "note": "(stereo partly specified) [19-Norandrostenolone]", "IC50 of cell viability": "> 46"}, {"smiles": "C[C@H](CCCC(C)(C)O)[C@H]1CC[C@H]2[C@@H]3CC=C4C[C@@H](O)CC[C@]4(C)[C@H]3CC[C@]12C", "note": "[25-Hydroxycholesterol]", "IC50 of cell viability": "> 46"}, {"smiles": "CN1CCN([C@@H](c2ccccc2)c2ccc(Cl)cc2)CC1", "note": "[(1-[(4-Chlorophenyl)phenyl-methyl]-4-methylpiperazine)]", "IC50 of cell viability": "> 46"}, {"smiles": "COc1ccc2c(c1OC)C(=O)O[C@H]2[C@@H]1c2cc3c(cc2CCN1C)OCO3", "note": "[(1S,9R)-beta-HYDRASTINE]", "IC50 of cell viability": "> 46"}, {"smiles": "CCc1cc(OC)c(C[C@H](C)N)cc1OC", "note": "[(+)-2,5-Dimethoxy-4-ethylamphetamine]", "IC50 of cell viability": "> 46"}, {"smiles": "COc1cc(C[C@H](C)N)c(OC)cc1C", "note": "[(+)-2,5-Dimethoxy-4-methylamphetamine]", "IC50 of cell viability": "> 46"}, {"smiles": "COc1ccc(OC)c(C[C@H](C)N)c1", "note": "[(+)-2,5-Dimethoxyamphetamine]", "IC50 of cell viability": "> 46"}, {"smiles": "COc1cc(C[C@H](C)N)c(OC)cc1Br", "note": "[(+)-4-Bromo-2,5-dimethoxyamphetamine]", "IC50 of cell viability": "> 46"}, {"smiles": "CCN[C@@H](C)Cc1cccc(C(F)(F)F)c1", "note": "[(+)-Fenfluramine]", "IC50 of cell viability": "> 46"}, {"smiles": "CCN(CC)C(=O)[C@H]\\1CN(C)[C@@H]\\2CC3=C[NH]C4=C3C(=CC=C4)C2=C1", "note": "[(+)-Lysergic]", "IC50 of cell viability": "> 46"}, {"smiles": "C[C@]12N[C@H](Cc3ccccc31)c1ccccc12", "note": "[(+)-MK 801]", "IC50 of cell viability": "> 46"}, {"smiles": "C[C@H]1[C@@H]2Cc3ccc(O)cc3[C@]1(C)CCN2C", "note": "[(+)-Metazocine]", "IC50 of cell viability": "> 46"}, {"smiles": "CCN[C@@H](C)Cc1ccccc1", "note": "[(+)-N-Ethylamphetamine]", "IC50 of cell viability": "> 46"}, {"smiles": "CN1CCC[C@@H]1c1cccnc1", "note": "[(+)-NICOTINE]", "IC50 of cell viability": "> 46"}, {"smiles": "CC(C)=CCN1CC[C@@]2(C)c3cc(O)ccc3C[C@H]1[C@@H]2C", "note": "[(+)-Pentazocine]", "IC50 of cell viability": "> 46"}]}]}
